Test results from article PMC9321647, “Curcumin-Based β-Diketo Ligands for Ga^3+: Thermodynamic Investigation of Potential Metal-Based Drugs” (Pharmaceuticals, 2022).

Columns and labels:
Assay type in all cases: physicochemical
[1] = Kinetic stability of ligands in simulated physiological conditions (UV-Vis); conditions: for Stability: percentage of the residual ligand after 4 h: PBS, pH 7.4, 37 °C in darkness; for Stability ranking (residual ligand after 4 h): rank among the 7 ligands, 1 = most stable
Method: The chemical stability of ligands and metal complexes at the M:L 1:L molar ratio at 37 °C in darkness was evaluated by UV−Vis spectroscopy as a change in absorbance in the 250−600 nm range over an overall period of 8 h. Solutions (5.0 × 10^–5 mol L^–1) of the ligands were prepared in 0.1 mol L^–1 phosphate-buffered solution (PBS) at pH 7.4. Spectra were recorded every 30 min. All profiles were linearized as the hyperbolic function defined by Equation (2), which represents an empirical model that describes drug decomposition or release well [42]:(2) t/f%=at+b where f% is the percentage of the residual compound at time t (min) referred to the starting concentration at time zero determined by reading the absorbance at λmax.

[2] = Spectrophotometric pH-metric titrations of Ga^3+:ligand systems (stability constants, pGa, speciation); conditions: for log β 112 overall stability constant (Ga^3+) / log β 124 overall stability constant (Ga^3+) / logK11 apparent formation constant (Ga^3+, M:L 1:1) / logK12 apparent formation constant (Ga^3+, M:L 1:2): 298 K; for log β 112 overall stability constant (Ga^3+) / log β 124 overall stability constant (Ga^3+): HypSpec; for logK11 apparent formation constant (Ga^3+, M:L 1:1) / logK12 apparent formation constant (Ga^3+, M:L 1:2): estimated from logβMLH; for Prevailing Species (pH 5.5) / Prevailing Species (pH 7.4): Ga^3+ complex species; for Prevailing Species (pH 7.4): ** possible formation of gallium hydroxide species; for pGa (−log[Ga^3+]free): [Ga^3+]total = 1 μM, [L]total = 10 μM, pH 7.4, 25 °C
Method: UV–visible spectra were recorded with a JASCO V-570 UV/Vis/NIR spectrophotometer at 298 K in the 250–600 nm spectral range employing quartz cells (1 cm optical path). To perform spectrophotometric titrations, ligands (denoted generally as L in the following) were dissolved in methanol to give a mother solution (2.50 mM), that was then diluted in water in order to obtain a final concentration of 50 μM. The metal/ligand (M:L) solutions were obtained by adding appropriate quantities of Ga(NO3)3 as methanol solutions (5–10 mM) in order to obtain the metal-to-ligand 1:1 molar ratio (L = 50 μM and V = 25 mL). For both L and M:L systems, pH (initial value of about 5) was varied by adding small amounts (<1 μL) of concentrated NaOH (4 M) up to ca. pH 11, thus to consider volume variations negligible. To evaluate the complexation ratio, constant additions of the M solution (10 µL each time, M = 10^–2 M) were dropped into the ligand solution (V = 25 mL, L = 50 μM) using a micropipette in order to reach different M:L molar ratios. A constant ionic strength (NaNO3, 0.1 M) was maintained in all experiments. Spectrophotometric investigations of iron(III) systems were performed in the same conditions; the Fe^3+ solution was freshly prepared in methanol starting from Fe(NO3)3·9H2O. The overall protonation constants (logβqr) and the overall stability constants of metal complexes (logβpqr) were evaluated from spectrophotometric data. The stability constants (βpqr), defined by the following equations:(3) pM^m++qL^l^−+rH^+⇌MpLqHr(mp−lq+r) (4) βpqr=[MpLqHr(mp−lq+r)]/[M^m+]^p·[L^l−]^q·[H^+]^r where L is the ligand in the completely dissociated form and H is proton, were refined using least-squares calculation in HypSpec. The results of least-squares calculation include the standard deviations and correlation coefficients of the refined parameters. The quantities are obtained by performing error propagation calculation from the experimental errors onto the parameters. The stability constant refinement furnishes least-squares estimates of the standard deviation, σ, of the stability constant β. The error on logβ is calculated as follows: σ(logβ) = [log(β + σ) − log(β − σ)]/2.
(§1) Hydroxide species, such as [Ga(OH)2]^+, were taken into account for calculations. The hydrolysis constants for Ga^3+ are as follows: logβ1,1,0 = −3.93; logβ2,1,0 = −7.73; logβ3,1,0 = −12.38; logβ4,1,0 = −15.96; logβ32,13,0 = −66.3; logβ3,1,0(s) = −3.54 [43]; pGa is defined as (−log[Ga^3+]free) and is calculated at specific conditions (Ga^3+total = 1 μM, Ltotal = 10 μM, pH 7.4, 25 °C). For the calculation of the iron(III) overall stability constants, the presence of [Fe(OH)]^2+, [Fe(OH)2]^+ and [Fe(OH)3] species was taken into account.

[3] = Iron-chelating ability by spectrophotometric analysis / transmetalation; conditions: for logβ124(Fe): Fe^3+, same conditions as Ga^3+ systems
From the text: Compounds 4 and 5 were selected to evaluate iron-chelating ability by spectrophotometric analysis in the same conditions as the ones applied to carry out investigations on Ga^3+ systems. The calculated logβ124(Fe) values were 56.2 (2) and 58.6 (4) for 4 and 5, respectively. From the difference between the logβ values of the complexes with two metal ions, it is possible to calculate the apparent stability constant K (logK = logβ124(Fe) − logβ124(Ga)) associated with the transmetalation reaction (Equation (1)). (1) Fe^3++[Ga(H2L)2]^+ ⇆ […]+[Fe(H2L)2]^+
UV–visible spectra were recorded with a JASCO V-570 UV/Vis/NIR spectrophotometer at 298 K in the 250–600 nm spectral range employing quartz cells (1 cm optical path). To perform spectrophotometric titrations, ligands (denoted generally as L in the following) were dissolved in methanol to give a mother solution (2.50 mM), that was then diluted in water in order to obtain a final concentration of 50 μM. The metal/ligand (M:L) solutions were obtained by adding appropriate quantities of Ga(NO3)3 as methanol solutions (5–10 mM) in order to obtain the metal-to-ligand 1:1 molar ratio (L = 50 μM and V = 25 mL). For both L and M:L systems, pH (initial value of about 5) was varied by adding small amounts (<1 μL) of concentrated NaOH (4 M) up to ca. pH 11, thus to consider volume variations negligible. […] The overall protonation constants (logβqr) and the overall stability constants of metal complexes (logβpqr) were evaluated from spectrophotometric data. […] The quantities are obtained by performing error propagation calculation from the experimental errors onto the parameters. […] The error on logβ is calculated as follows: σ(logβ) = [log(β + σ) − log(β − σ)]/2.
as §1, with “For the calculation of the iron(III) overall stability constants, the presence of [Fe(OH)]^2+, [Fe(OH)2]^+ and [Fe(OH)3] species was taken into account.” left out

Molecule | Stability: percentage of the residual ligand after 4 h [1] | Stability ranking (residual ligand after 4 h) [1] | log β 112 overall stability constant (Ga^3+) [2] | log β 124 overall stability constant (Ga^3+) [2] | logK11 apparent formation constant (Ga^3+, M:L 1:1) [2] | logK12 apparent formation constant (Ga^3+, M:L 1:2) [2] | Prevailing Species (pH 5.5) [2] | Prevailing Species (pH 7.4) [2] | pGa (−log[Ga^3+]free) [2] | logβ124(Fe) [3] | LogK apparent stability constant of transmetalation (logβ124(Fe) − logβ124(Ga)) ([3]; Fe^3+ + [Ga(H2L)2]^+ exchange)
2-((4Z,6E)-5-hydroxy-7-(4-hydroxyphenyl)-4-((E)-3-(4-hydroxy-3-ethoxyphenyl) acryloyl) hepta-4,6-dien-1-yl)isoindoline-1,3-dione [Compound 5] | 52% | 5 | 28.54 (3) | 57.00 (1) | 8.09 | 16.1 | [Ga(H2L)2]^+ | [Ga(H2L)2]^+ | 23.2 | 58.6 (4) | 
COc1cc(/C=C/C(=O)C(CCCN2C(=O)c3ccccc3C2=O)C(=O)/C=C/c2ccc(O)c(OC)c2)ccc1O [Compound 4] | 42% | 7 | 28.48 (5) | 55.33 (5) | 8.04 | 14.45 | [Ga(H2L)2]^+ | [Ga(H2L)2]^+ | 21.5 | 56.2 (2) | 0.9(3)
